Laboratory results taken from PubChem BioAssay AID1259407 (Chemical Carcinogenesis Research Information System (CCRIS), 2018).
Active and inactive are the calls of the source. No rule for the calls is given here.

Tested on: CCRIS mutagenicity, Ames/micronucleus/aberration tests
Assay: CCRIS mutagenicity studies

Question: What does the source list for `ClCC(Br)CBr` (stereo not drawn)?
Answer: mutagenic call (End Point: IN VITRO CHROMOSOMAL ABERRATIONS, Test System: CHO CELLS, Metabolic Activation: NONE): active; positive; mutagenic call (End Point: IN VITRO CHROMOSOMAL ABERRATIONS, Test System: CHO CELLS, Metabolic Activation: RAT, LIVER, S-9, AROCLOR 1254): active; positive; mutagenic call (Test System: AMES SALMONELLA TYPHIMURIUM, Strain/Indicator: TA97, Metabolic Activation: HAMSTER, LIVER, S-9, AROCLOR 1254 (10%), Method: PREINCUBATION): active; positive; mutagenic call (Test System: AMES SALMONELLA TYPHIMURIUM, Strain/Indicator: TA97, Metabolic Activation: NONE, Method: PREINCUBATION): inactive; negative; mutagenic call (Test System: AMES SALMONELLA TYPHIMURIUM, Strain/Indicator: TA97, Metabolic Activation: RAT, LIVER, S-9, AROCLOR 1254 (10%), Method: PREINCUBATION): active; positive; mutagenic call (Test System: AMES SALMONELLA TYPHIMURIUM, Strain/Indicator: TA98, Metabolic Activation: HAMSTER, LIVER, S-9, AROCLOR 1254 (10%), Method: PREINCUBATION): active; positive; mutagenic call (Test System: AMES SALMONELLA TYPHIMURIUM, Strain/Indicator: TA98, Metabolic Activation: NONE, Method: FLASK ASSAY): inactive; negative; mutagenic call (Test System: AMES SALMONELLA TYPHIMURIUM, Strain/Indicator: TA98, Metabolic Activation: NONE, Method: PREINCUBATION): inactive; negative; mutagenic call (Test System: AMES SALMONELLA TYPHIMURIUM, Strain/Indicator: TA98, Metabolic Activation: RAT, LIVER, S-9, AROCLOR 1254 (10%), Method: PREINCUBATION): inactive; negative; mutagenic call (Test System: AMES SALMONELLA TYPHIMURIUM, Strain/Indicator: TA98, Metabolic Activation: RAT, LIVER, S-9, AROCLOR 1254, Method: FLASK ASSAY): active; positive; mutagenic call (Test System: AMES SALMONELLA TYPHIMURIUM, Strain/Indicator: TA100, Metabolic Activation: HAMSTER, LIVER, S-9, AROCLOR 1254 (10%), Method: PREINCUBATION): active; positive; mutagenic call (Test System: AMES SALMONELLA TYPHIMURIUM, Strain/Indicator: TA100, Metabolic Activation: NONE, Method: FLASK ASSAY): inactive; negative; mutagenic call (Test System: AMES SALMONELLA TYPHIMURIUM, Strain/Indicator: TA100, Metabolic Activation: NONE, Method: PREINCUBATION): inactive; negative; mutagenic call (Test System: AMES SALMONELLA TYPHIMURIUM, Strain/Indicator: TA100, Metabolic Activation: NONE, Method: STANDARD PLATE): inactive; negative; mutagenic call (Test System: AMES SALMONELLA TYPHIMURIUM, Strain/Indicator: TA100, Metabolic Activation: NONE, Method: SUSPENSION/PLATE): inactive; negative; mutagenic call (Test System: AMES SALMONELLA TYPHIMURIUM, Strain/Indicator: TA100, Metabolic Activation: RAT TESTICULAR CELLS, Method: STANDARD PLATE): inactive; negative; mutagenic call (Test System: AMES SALMONELLA TYPHIMURIUM, Strain/Indicator: TA100, Metabolic Activation: RAT, HEPATOCYTES, AROCLOR 1254, Method: STANDARD PLATE): active; positive; mutagenic call (Test System: AMES SALMONELLA TYPHIMURIUM, Strain/Indicator: TA100, Metabolic Activation: RAT, HEPATOCYTES, Method: STANDARD PLATE): active; positive; mutagenic call (Test System: AMES SALMONELLA TYPHIMURIUM, Strain/Indicator: TA100, Metabolic Activation: RAT, LIVER, HEPATOCYTES, Method: SUSPENSION/PLATE): active; positive; mutagenic call (Test System: AMES SALMONELLA TYPHIMURIUM, Strain/Indicator: TA100, Metabolic Activation: RAT, LIVER, MICROSOMES, AROCLOR 1254, Method: PREINCUBATION): active; positive; mutagenic call (Test System: AMES SALMONELLA TYPHIMURIUM, Strain/Indicator: TA100, Metabolic Activation: RAT, LIVER, MICROSOMES, PHENOBARBITAL, NADPH COFACTORS, Method: STANDARD PLATE): active; positive; mutagenic call (Test System: AMES SALMONELLA TYPHIMURIUM, Strain/Indicator: TA100, Metabolic Activation: RAT, LIVER, MICROSOMES, PHENOBARBITAL, Method: PREINCUBATION): active; positive; mutagenic call (Test System: AMES SALMONELLA TYPHIMURIUM, Strain/Indicator: TA100, Metabolic Activation: RAT, LIVER, MICROSOMES, PHENOBARBITAL, Method: STANDARD PLATE): inactive; negative; mutagenic call (Test System: AMES SALMONELLA TYPHIMURIUM, Strain/Indicator: TA100, Metabolic Activation: RAT, LIVER, MICROSOMES, Method: PREINCUBATION): active; positive; mutagenic call (Test System: AMES SALMONELLA TYPHIMURIUM, Strain/Indicator: TA100, Metabolic Activation: RAT, LIVER, S-9, AROCLOR 1254 (10%), Method: PREINCUBATION): active; positive; mutagenic call (Test System: AMES SALMONELLA TYPHIMURIUM, Strain/Indicator: TA100, Metabolic Activation: RAT, LIVER, S-9, AROCLOR 1254, Method: FLASK ASSAY): active; positive; mutagenic call (Test System: AMES SALMONELLA TYPHIMURIUM, Strain/Indicator: TA100, Metabolic Activation: RAT,TESTICULAR CELLS, AROCLOR 1254, Method: STANDARD PLATE): inactive; negative; mutagenic call (Test System: AMES SALMONELLA TYPHIMURIUM, Strain/Indicator: TA100, Metabolic Activation: S-9 MIX, Method: STANDARD PLATE): active; positive; mutagenic call (Test System: AMES SALMONELLA TYPHIMURIUM, Strain/Indicator: TA1535, Metabolic Activation: HAMSTER, LIVER, S-9, AROCLOR 1254 (10%), Method: PREINCUBATION): active; positive; mutagenic call (Test System: AMES SALMONELLA TYPHIMURIUM, Strain/Indicator: TA1535, Metabolic Activation: NONE, Method: FLASK ASSAY): active; positive; mutagenic call (Test System: AMES SALMONELLA TYPHIMURIUM, Strain/Indicator: TA1535, Metabolic Activation: NONE, Method: PREINCUBATION): inactive; negative; mutagenic call (Test System: AMES SALMONELLA TYPHIMURIUM, Strain/Indicator: TA1535, Metabolic Activation: RAT, LIVER, S-9, AROCLOR 1254 (10%), Method: PREINCUBATION): active; positive; mutagenic call (Test System: AMES SALMONELLA TYPHIMURIUM, Strain/Indicator: TA1535, Metabolic Activation: RAT, LIVER, S-9, AROCLOR 1254, Method: FLASK ASSAY): active; positive; mutagenic call (Test System: AMES SALMONELLA TYPHIMURIUM, Strain/Indicator: TA1537, Metabolic Activation: HAMSTER, LIVER, S-9, AROCLOR 1254 (10%), Method: PREINCUBATION): inactive; negative; mutagenic call (Test System: AMES SALMONELLA TYPHIMURIUM, Strain/Indicator: TA1537, Metabolic Activation: NONE, Method: FLASK ASSAY): inactive; negative; mutagenic call (Test System: AMES SALMONELLA TYPHIMURIUM, Strain/Indicator: TA1537, Metabolic Activation: RAT, LIVER, S-9, AROCLOR 1254 (10%), Method: PREINCUBATION): inactive; negative; mutagenic call (Test System: AMES SALMONELLA TYPHIMURIUM, Strain/Indicator: TA1537, Metabolic Activation: RAT, LIVER, S-9, AROCLOR 1254, Method: FLASK ASSAY): inactive; negative; mutagenic call (Test System: AMES SALMONELLA TYPHIMURIUM, Strain/Indicator: TA1538, Metabolic Activation: NONE, Method: FLASK ASSAY): inactive; negative; mutagenic call (Test System: AMES SALMONELLA TYPHIMURIUM, Strain/Indicator: TA1538, Metabolic Activation: RAT, LIVER, S-9, AROCLOR 1254, Method: FLASK ASSAY): inactive; negative; mutagenic call (Test System: MOUSE LYMPHOMA, Strain/Indicator: L5178Y (TK+/TK-), Metabolic Activation: NONE, Method: SUSPENSION/PLATE): active; positive; mutagenic call (Test System: MOUSE LYMPHOMA, Strain/Indicator: L5178Y (TK+/TK-), Metabolic Activation: RAT, LIVER, S-9, AROCLOR 1254, Method: SUSPENSION/PLATE): active; positive; mutagenic call (Test System: UDS RODENT HEPATOCYTES, Strain/Indicator: THY INCORP (NON-S-PHASE), Metabolic Activation: AROCLOR 1254, Method: LIQUID SCINTILLATION COUNTING): inactive; negative; mutagenic call (Test System: UDS RODENT HEPATOCYTES, Strain/Indicator: THY INCORP (NON-S-PHASE), Metabolic Activation: NONE, Method: LIQUID SCINTILLATION COUNTING): active; positive
